{"source": "patent US4309342A", "about": "“Antibacterial peptides” (Abbott Laboratories, priority 1980, dated 1982)", "key": {"Enterococcus 89": {"test_system": "Enterococcus 89", "test": "Minimum inhibitory concentration, serial dilution in synthetic bacterial growth medium", "type": "cell-based", "details": "35-37 °C, 16-20 hours", "protocol": "(§1) The above fluorinated dipeptides are prepared in sterile concentrated aqueous solutions. Serial dilutions are made to give a range of concentrations of the test substances. Samples of the dilutions are mixed with an appropriate sterile synthetic bacterial growth medium in test tubes. The tubes are then inoculated with an appropriate test organism and incubated at 35°-37° C. for 16-20 hours. […]"}, "Staph. aureus (Smith)": {"test_system": "Staph. aureus (Smith)", "test": "In vivo mouse protection test (CD50, 7-day survival after intraperitoneal infection)", "set-up": "species or system Charles River mice", "details": "peptide alone, subcutaneous, e.g. 1 and 5 hours post-infection, mice infected i.p. with 10-100 x LD50 Staph. aureus (Smith)", "protocol": "Charles River mice weighing approximately 20 g. each, were infected intraperitoneally with 10-100 times the LD50 of the infecting organism. At predetermined intervals post-infection, e.g., 1 and 5 hours, mice were dosed subcutaneously with graded doses of the new dipeptide, antibiotic and a combination thereof. The number of mice surviving each treatment for 7 days post-infection was observed and the CD50 is calculated. The results using D-cycloserine as an example of the antiobiotic and representative fluorinated dipeptides are shown in Table II, using Staph. aureus (Smith) as the infecting organism. The values are listed in mg./kg."}, "Bacillus subtilis 9466": {"test_system": "Bacillus subtilis 9466", "test": "Minimum inhibitory concentration, serial dilution in synthetic bacterial growth medium", "type": "cell-based", "details": "35-37 °C, 16-20 hours, value in parentheses: a higher concentration did not always inhibit growth", "protocol": "as §1"}, "Strep. faecalis 10541": {"test_system": "Strep. faecalis 10541", "test": "Minimum inhibitory concentration, serial dilution in synthetic bacterial growth medium", "type": "cell-based", "details": "35-37 °C, 16-20 hours, value in parentheses: a higher concentration did not always inhibit growth", "protocol": "as §1"}, "Kleb. pneumonise 8045": {"test_system": "Kleb. pneumonise 8045", "test": "Minimum inhibitory concentration, serial dilution in synthetic bacterial growth medium", "type": "cell-based", "details": "35-37 °C, 16-20 hours, value in parentheses: a higher concentration did not always inhibit growth", "protocol": "as §1"}, "Shigella sonnei 9290": {"test_system": "Shigella sonnei 9290", "test": "Minimum inhibitory concentration, serial dilution in synthetic bacterial growth medium", "type": "cell-based", "details": "35-37 °C, 16-20 hours, value in parentheses: a higher concentration did not always inhibit growth", "protocol": "as §1"}, "Staph. aureus Smith": {"test_system": "Staph. aureus Smith", "test": "Minimum inhibitory concentration, serial dilution in synthetic bacterial growth medium", "type": "cell-based", "details": "35-37 °C, 16-20 hours, value in parentheses: a higher concentration did not always inhibit growth", "protocol": "as §1"}, "E. coli Juhl": {"test_system": "E. coli Juhl", "test": "Minimum inhibitory concentration, serial dilution in synthetic bacterial growth medium", "type": "cell-based", "details": "35-37 °C, 16-20 hours, value in parentheses: a higher concentration did not always inhibit growth", "protocol": "as §1"}}}
{"compound": "C[C@H](NC(=O)[C@H](N)CF)C(=O)O", "note": "[Example 1, β-fluoro-D-alanyl-L-alanine]", "values": [{"measurement": "Minimum inhibitory concentration", "setting": "Enterococcus 89", "value": 200}, {"measurement": "CD50, Peptide", "setting": "Staph. aureus (Smith)", "value": 9.4, "unit": "mg/kg"}]}
{"compound": "N[C@H](CF)C(=O)N[C@@H](Cc1ccccc1)C(=O)O", "note": "[Example 2, β-fluoro-D-alanyl-L-phenylalanine]", "values": [{"measurement": "Minimum inhibitory concentration", "setting": "Bacillus subtilis 9466", "value": 3.1}, {"measurement": "Minimum inhibitory concentration", "setting": "Enterococcus 89", "value": 25}, {"measurement": "Minimum inhibitory concentration", "setting": "Strep. faecalis 10541", "value": 0.78}, {"measurement": "CD50, Peptide", "setting": "Staph. aureus (Smith)", "value": "75 to 150", "unit": "mg/kg"}]}
{"compound": "CC(C)C[C@H](NC(=O)[C@H](N)CF)C(=O)O", "note": "[Example 4, F-D-Ala-L-Leu]", "values": [{"measurement": "Minimum inhibitory concentration", "setting": "Kleb. pneumonise 8045", "value": 800}, {"measurement": "Minimum inhibitory concentration", "setting": "Bacillus subtilis 9466", "value": 6.2}, {"measurement": "Minimum inhibitory concentration", "setting": "Shigella sonnei 9290", "value": 800}, {"measurement": "Minimum inhibitory concentration", "setting": "Staph. aureus Smith", "value": 800}, {"measurement": "Minimum inhibitory concentration", "setting": "E. coli Juhl", "value": 800}, {"measurement": "Minimum inhibitory concentration", "setting": "Enterococcus 89", "value": 25}, {"measurement": "Minimum inhibitory concentration", "setting": "Strep. faecalis 10541", "value": 3.1}]}
{"compound": "CC(C)(NC(=O)[C@H](N)CF)C(=O)O", "note": "[Example 5, βF-D-Ala-Aibu]", "values": [{"measurement": "Minimum inhibitory concentration", "setting": "Kleb. pneumonise 8045", "value": 800}, {"measurement": "Minimum inhibitory concentration", "setting": "Staph. aureus Smith", "value": 800}, {"measurement": "Minimum inhibitory concentration", "setting": "Enterococcus 89", "value": 25}, {"measurement": "Minimum inhibitory concentration", "setting": "Strep. faecalis 10541", "value": 800}]}
{"compound": "CC(C)[C@H](NC(=O)[C@H](N)CF)C(=O)O", "note": "[Example 6, βF-D-Ala-L-Val]", "values": [{"measurement": "Minimum inhibitory concentration", "setting": "Kleb. pneumonise 8045", "value": 800}, {"measurement": "Minimum inhibitory concentration", "setting": "Staph. aureus Smith", "value": 800}, {"measurement": "Minimum inhibitory concentration", "setting": "E. coli Juhl", "value": 800}, {"measurement": "Minimum inhibitory concentration", "setting": "Enterococcus 89", "value": 6.2}]}
{"compound": "N[C@H](CF)C(=O)N[C@@H](CCC(=O)O)C(=O)O", "note": "[Example 3, βF-D-Ala-L-Glu]", "values": [{"measurement": "Minimum inhibitory concentration", "setting": "Bacillus subtilis 9466", "value": 3.1}, {"measurement": "Minimum inhibitory concentration", "setting": "Staph. aureus Smith", "value": 800}, {"measurement": "Minimum inhibitory concentration", "setting": "Enterococcus 89", "value": 25}, {"measurement": "Minimum inhibitory concentration", "setting": "Strep. faecalis 10541", "value": 50}]}
